The structures appear in SMILES notation.

This note sets out measurements from patent US20240189263A1, “DERIVATIZED C60 MOLECULES AND METHODS AND MATERIALS FOR USING DERIVATIZED C60 MOLECULES TO REDUCE RADIATION INJURY” (Mayo Foundation for Medical Education and Research, priority 2021, published 2024).

Series [1] concerns Panc02 tumor on the thigh of C57B16 mice. The series is described as follows: Syngeneic mouse model of pancreatic cancer, tumor volume under radiation. The series is classed as in vivo. To be noted: 700 mg/kg per os once 12 hours before first radiation, with capecitabine 350 mg/kg 5 days, 2 Gy x 5 days, 20 days. The procedure:
A syngeneic mouse model of pancreatic cancer (Panc02 growing on the thigh of C57B16 mice) was used to evaluate the effects of C60-ser on in vivo tumors. Mice were treated with 350 mg/kg capecitabine via per os gavage for 5 days 1 hour before radiation (RT+Cape), or capecitabine treatment with a single dose of 700 mg/kg C60-ser via per os gavage once 12 hours before the first dose of radiation (RT+Cape+c60 Ser). Mice were exposed to 2 Gy of radiation (RT) once per day for 5 days. A control group (Cont) without treatment also was exposure to the radiation treatment. Normalized tumor volumes were monitored for 20 days.

The test system of the next series is NIH3T3 cells. Nature of the series: Seahorse mitochondrial respiration (oxygen consumption rate), NIH3T3. The format is cell-based. To be noted: NIH3T3, pretreated 2 hours before 1 Gy 230 MeV proton. Here is the method: (§1) The oxygen consumption rates were assessed in N2A, HUVEC, NIH3T3, and HepG2 cell lines with a Seahorse XFe96 (Agilent Technologies, Santa Clara, CA, USA). Cells were treated with 0 and 1 Gy of 230 MeV proton irradiation. The control plates were run at about the same time post plating. Each cell line was optimized prior to these experiments, and data was presented normalized to cell number plated. The standard mitochondrial stress test was performed using serial injections of oligomycin (1.5 μM), carbonyl cyanide p-(trifluoromethoxy)phenylhydrazone (FCCP, 1 μM), and rotenone/antimycin A mixture (0.5 μM). After injection of oligomycin, which inhibits ATP synthase (complex V), there was a drop in electron flow through the electron transport chain (ETC) and a resultant drop in oxygen consumption rate (OCR) of the cells. Injection of FCCP collapsed the proton gradient and allowed for uninhibited electron flow through the ETC supercomplexes. […] The reserve respiratory capacity was calculated by subtracting the basal respiratory capacity from the maximal respiratory capacity.

Series [2] deals with HepG2 cells. Nature of the series: Classic clonogenics survival assay of irradiated cells, HepG2. The format is cell-based. The procedure:
A classic clonogenics assay was performed to further test the ability of C60-ser to protect against radiation damage. After irradiation, a fraction of the cells will undergo radiation-induced death, whereas other cells remain metabolically active and are able to undergo a few cycles of mitosis before meeting their endpoint. Since many cells remain metabolically activity, classic toxicity measurements such as an MTT measurement are not able to catch the full effects of radiation damage. In contrast, a classic clonogenics assay, which plates a known number of cells and tracks development of colonies, is able to track the number of cells that maintain their clonogenicity. With increasing radiation doses, the fraction of cells that maintain clonogenicity decrease. Therefore, a successful radioprotectant is able to increase the number of surviving colonies compared to the control at the same radiation doses.
N2A, NIH3T3, and HepG2 cells were plated in 35 mm dishes and treated with 100 μM C60-ser for 2 hours prior to washing with PBS and irradiation at 0, 2, 4, and 6 Gy with a 230 MeV proton beam. Following radiation, a known number of cells were re-plated in six well plates and allowed to grow in culture for 8-14 days to allow for colony formation. To account for cell death with higher radiation doses, a larger number of cells were plated with increasing doses received. […]

For another series, the system named is N2A cells. Nature of the series: Seahorse mitochondrial respiration (oxygen consumption rate), N2A. The format is cell-based. The settings on record: pretreated 2 hours before 1 Gy 230 MeV proton. Here is the method:
as §1

For another series, the system named is C57B16 mice. The series is described as follows: Whole body radiation protection, survival. The series is classed as in vivo.
Series [3] relates to HepG2 cells. Nature of the series: MTS cytotoxicity assay, HepG2. The settings on record: HepG2, 1-1000 μM, 24, 48 or 72 hours. The format is cell-based. Here is the method: (§2) Cytotoxicity of C60-ser was determined by an MTS (3-(4,5-dimethylthiazol-2-yl)-5-(3-carboxymethoxyphenyl)-2-(4-sulfophenyl)-2H-tetrazolim) colorimetric assay on four different cell lines, each representing a different cell type. Specifically, HepG2 (liver epithelium), HUVEC (endothelial cells), N2A (neuroblastoma cells representative of normal neurons), and NIH3T3 (fibroblasts) were analyzed. The cells were seed in a 96-well tissue culture polystyrene plate at different seeding concentrations based on the cell's doubling time. HUVEC cells were seeded at 10,000 cells/well (24 hour experiments), 8,000 cells/well (48 hour experiments), and 5,000 cells/well (72 hour experiments), and incubated for 24 hours in a humidified atmosphere with 5% C02 at 37° C. […] After incubation with MTS, the optical density (OD) of the resulting formazan solution was read at 490 nm using a microplate reader (Biotek Cytation 5 cell Imaging Multi-Mode reader, Winooski, VT). The cell viability was obtained by normalizing the absorbance of the sample with that of the control wells containing untreated cells. The cell viability was expressed as a percentage, assigning the viability of non-treated cells as 100%. […]

A further series relates to HUVEC cells. The series is described as follows: MTS cytotoxicity assay, HUVEC. The series is classed as cell-based. To be noted: 1-1000 μM, 24, 48 or 72 hours. The procedure:
as §2

Series [4] in a line: SEM analysis of C60-ser aggregates. The series is classed as physicochemical. The settings on record: frozen and vacuum-dried solutions. The procedure:
Solutions of C60-ser were frozen with liquid nitrogen and dried under high vacuum while still frozen. FIGS. 3A and 3B show example scanning electron microscopy (SEM) images of aggregates of C60-ser. The aggregates formed when solid C60-ser was dissolved in water or an aqueous salt solution. The aggregates formed within a period of seconds to several hours, after which the system remained in equilibrium.

Consider `O=C(NC(CO)CO)C1(C(=O)NC(CO)CO)C23c4c5c6c7c8c4-c4c2c2c9c%10c4C4%11c%12c-%10c%10c%13c%14c%12-c%12c(c-7c7c%15c%12C%14%12C(C(=O)NC(CO)CO)(C(=O)NC(CO)CO)C%12%14c%12c%16c%17c%18c(c%12-%15)C7%12C(C(=O)NC(CO)CO)(C(=O)NC(CO)CO)C6%12c6c-5c5c7c(c6-%18)C%176C(C(=O)NC(CO)CO)(C(=O)NC(CO)CO)C6%12c6c-7c(c-2c2c6-c6c%12c-%16c%14c-%13c6C%106C(C(=O)NC(CO)CO)(C(=O)NC(CO)CO)C926)C513)C84C%11(C(=O)NC(CO)CO)C(=O)NC(CO)CO` (centres unmarked) [C60-ser, C60-serinol], for which the “normalized tumor volume vs capecitabine alone” value in series [1] is “not significantly different in normalized tumor volume”. Further, the “radiation-induced increase in respiratory capacity” value in the series with NIH3T3 cells was “dampened and, in some cases, reduced to normal or slightly below normal levels”; in the series with N2A cells, “dampened and, in some cases, reduced to normal or slightly below normal levels”. In addition, in the series on HepG2 cells [2] (HepG2, 100 μM 2 hours before irradiation), the “fraction of surviving cells” value is given as “increased the fraction of surviving cells”. In addition, the “dose enhancement factor (DEF) at 20% surviving fraction” value in the series with HepG2 cells [2] (HepG2, 100 μM 2 hours, 0-6 Gy 230 MeV proton) is 0.88±0.01. Moreover, the “protection from whole body x-ray radiation-induced death” value in the series with C57B16 mice (given systemically 12 hours after radiation) was “protected mice from whole body x-ray radiation-induced death”. Further, the “survival over 45 day study” value turned out to be 100% in the series with C57B16 mice (per os 700 mg/kg 12 hours before 9.5 Gy whole-body x-ray, then 70 mg/kg daily for eight days) and 100% in the series on C57B16 mice (per os 700 mg/kg once 12 hours before 9.5 Gy whole-body x-ray). For the same compound, the percent viability entry with HepG2 cells [3] and in the series on HUVEC cells was “did not result in a significant decrease in viability” each time. In series [4], the “internal diameters of hollow hull aggregates” value is reported as 40-1000 nm.
